From patent publication US20040054182A1, “1h-imidazopyridine derivatives” (priority 2000, published 2004)
Counter-ions that a name gives are not always drawn.

Tests used:
human IL-1 beta = assay: Inhibitory action against IL-1 beta production in LPS-stimulated human PBMCs (sandwich ELISA of culture supernatant); type: cell-based; details: 16 hours
Method: (§1) As an example of the excellent effects of the compounds of the present invention, experimental results of inhibitory actions against production of TNF-alpha and IL-1 beta in human cells will be shown below.
(§2) About 50 mL of whole blood was collected from each adult healthy volunteer by venepuncture, and poured into plastic tubes which containing 170 micro L of Novo-heparin 1000 (produced by Novo-Nordisk). Then, PBMCs (Peripheral Blood Mononuclear Cells) were separated using LeucoPREP™ (produced by Becton Dickinson) lymphocyte separation tube, and cultured with RPMI-1640 medium (produced by Nissui Pharmaceutical Co.) containing 2 mM L-glutamine (produced by Life Technologies), 2.5 U/mL penicillin-2.5 micro g/mL streptomycin solution (produced by Life Technologies) supplemented with 10% fetal calf serum (produced by Intergen Company) at 1×10^6 cells/mL.
(§3) Test compounds were dissolved in distilled ultra-pure water, dimethyl sulfoxide or 0.1 M hydrochloric acid at 20 micro M as far as possible, and then sequentially diluted with saline and used.
(§4) A hundred and eighty micro L of prepared human PBMCs were added to each well of 96-well plate (MicroTest III™ tissue culture plate; produced by Becton Dickinson) containing 10 micro L of adequate concentrations solution of test compounds. Then 30 minutes after, 10 micro L of 20 micro g/mL lipopolysaccharide (LPS) was added to each well, and cells in the well plate were covered with plastic lid and incubated for 16 hours at 37° C. in an atmosphere of 5% CO2.
(§5) The levels of human TNF-alpha and human IL-1 beta in culture supernatant were measured by constructed sandwich enzyme-linked immunosorbent assay method. Ninety-six-well microtiter plates were coated with diluted anti-cytokine antibody (capture/first-antibody). After washing the wells, the culture supernatant was diluted appropriately, added to each well and incubated. Then detection/second-antibody against cytokine and HRP (horseradish peroxidase)-conjugated/third-antibody against detection-antibody were added to wells sequentially, with interposed washing processes. After the final washing process, reaction of calorimetric quantification was started by addition of tetramethylbenzidine solution (produced by DAKO) to each well. After quenching the reaction by addition of 0.5 M sulfuric acid, optical absorbance of each well at 450 nm was measured by M-VmaxTM kinetic microplate reader (produced by Molecular Devices). Concentrations of cytokines were determined by Softmax™ (produced by Molecular Devices) quantification software in comparison with calibration curve derived from corresponding recombinant cytokines as standard. For measurement of human TNF-alpha, monoclonal mouse anti-human TNF-alpha (produced by ENDOGEN), polyclonal rabbit anti-human TNF-alpha (produced by Pharma Biotechnologie Hannover), peroxidase-conjugated donkey anti-rabbit IgG antibodies (produced by Jackson ImmunoRes. Labs.), and recombinant human TNF-alpha (produced by INTERGEN Company) were used for the capture-, detection-, HRP-conjugated-antibodies and the standard for calibration curve, respectively. […]

human TNF-alpha = assay: Inhibitory action against TNF-alpha production in LPS-stimulated human PBMCs (sandwich ELISA of culture supernatant); type: cell-based; details: 16 hours
Method: as §1, §2, §3, §4, §5

[1] = administered concentration 0.01 micro mol/L
[2] = administered concentration 0.03 micro mol/L
[3] = administered concentration 0.10 micro mol/L
[4] = administered concentration 0.3 micro mol/L
[5] = administered concentration 1.0 micro mol/L

Row | SMILES | melting point | also measured
1 | FC(F)(F)c1nc2ccccc2c2c1nc(-c1ccc[nH]1)n2CCC1CNCCO1 (stereo not shown) [Example 102, 1-[2-(2-Morpholinyl)ethyl]-2-(2-pyrrolyl)-4-trifluoromethyl-1H-imidazo[4,5-c]-quinoline] | – | Inhibitory action against IL-1 beta production in human cells (inhibitory percentages of cytokine production) (human IL-1 beta; [1]): 81%; Inhibitory action against IL-1 beta production in human cells (inhibitory percentages of cytokine production) (human IL-1 beta; [2]): 67%; Inhibitory action against IL-1 beta production in human cells (inhibitory percentages of cytokine production) (human IL-1 beta; [3]): 48%; Inhibitory action against IL-1 beta production in human cells (inhibitory percentages of cytokine production) (human IL-1 beta; [4]): 0%; Inhibitory action against IL-1 beta production in human cells (inhibitory percentages of cytokine production) (human IL-1 beta; [5]): 0%; Inhibitory action against TNF-alpha production in human cells (inhibitory percentages of cytokine production) (human TNF-alpha; [1]): 96%; Inhibitory action against TNF-alpha production in human cells (inhibitory percentages of cytokine production) (human TNF-alpha; [2]): 84%; Inhibitory action against TNF-alpha production in human cells (inhibitory percentages of cytokine production) (human TNF-alpha; [3]): 25%; Inhibitory action against TNF-alpha production in human cells (inhibitory percentages of cytokine production) (human TNF-alpha; [4]): 23%; Inhibitory action against TNF-alpha production in human cells (inhibitory percentages of cytokine production) (human TNF-alpha; [5]): 27%
2 | CN(C)CCn1c(-c2ccc[nH]2)nc2c(C(F)(F)F)nc3ccccc3c21 (as salt: fumarate) [Example 51, 1-(2-Dimethylaminoethyl)-2-(2-pyrrolyl)-4-trifluoromethyl-1H-imidazo[4,5-c]-quinoline] | 228 to 230 °C (dec.) | –
3 | O=C(O)c1nc2ccccc2c2c1nc(-c1ccccc1)n2CCC1CCNCC1 (as salt: trifluoroacetate) (hydrate or solvate) [Example 118, 2-Phenyl-1-[2-(4-piperidyl)ethyl]-1H-imidazo[4,5-c]quinoline-4-carboxylic acid] | 212 to 215 °C | –
4 | Cc1ccc2c(c1)nc(C(F)(F)F)c1nc(-c3ccccc3)n(CCC3CCNCC3)c12 (as salt: trifluoroacetate) [Example 86, 7-Methyl-2-phenyl-1-[2-(4-piperidyl)ethyl]-4-trifluoromethyl-1H-imidazo[4,5-c]-quinoline] | 234 to 235 °C (dec.) | –
5 | Fc1ccc2c(c1)nc(C(F)(F)F)c1nc(-c3ccc[nH]3)n(CCC3CCNCC3)c12 (as salt: trifluoroacetate) (hydrate or solvate) [Example 81, 7-Fluoro-1-[2-(4-piperidyl)ethyl]-2-(2-pyrrolyl)-4-trifluoromethyl-1H-imidazo-[4,5-c]quinoline] | 252 to 254 °C (dec.) | –
6 | FC(F)(F)c1nc2ccccc2c2c1nc(-c1ccco1)n2CCC1CCNCC1 (as salt: trifluoroacetate) (hydrate or solvate) | 133.5 to 136.5 °C (dec.) | –
7 | FC(F)(F)c1nc2cc(Cl)ccc2c2c1nc(C1CCCCC1)n2CCC1CCNCC1 (as salt: trifluoroacetate) [Example 79, 7-Chloro-2-cyclohexyl-1-[2-(4-piperidyl)ethyl]-4-trifluoromethyl-1H-imidazo-[4,5-c]quinoline] | 236 to 237 °C (dec.) | –
8 | N#Cc1nc2ccccc2c2c1nc(-c1ccccc1)n2CCC1CCNCC1 (as salt: trifluoroacetate) (hydrate or solvate) [Example 117, 4-Cyano-2-phenyl-1-[2-(4-piperidyl)ethyl]-1H-imidazo[4,5-c]quinoline] | 245 to 251 °C (dec.) | –
9 | Fc1ccc2c(c1)nc(C(F)(F)F)c1nc(-c3ncc[nH]3)n(CCC3CCNCC3)c12 (as salt: trifluoroacetate) (hydrate or solvate) [Example 83, 7-Fluoro-2-(2-1H-imidazolyl)-1-[2-(4-piperidyl)ethyl]-4-trifluoromethyl-1H-imidazo[4,5-c]quinoline] | 249 to 250 °C (dec.) | –
10 | c1ccc(-c2nc3ccccc3c3c2nc(-c2ccccc2)n3CCC2CCNCC2)cc1 [Example 112, 2,4-Diphenyl-1-[2-(4-piperidyl)ethyl]-1H-imidazo[4,5-c]quinoline] | 209 to 211 °C | –
11 | c1ccc(-c2nc3c(C4CC4)nc4ccccc4c3n2CCC2CCNCC2)cc1 (as salt: fumarate) (hydrate or solvate) [Example 110, 4-Cyclopropyl-2-phenyl-1-[2-(4-piperidyl)ethyl]-1H-imidazo[4,5-c]quinoline] | 142.5 to 147 °C (dec.) | –
12 | FC(F)(F)c1nc2ccccc2c2c1nc(-c1cccs1)n2CCC1CCNCC1 (as salt: trifluoroacetate) (hydrate or solvate) [Example 66, 1-[2-(4-Piperidyl)ethyl]-2-(2-thienyl)-4-trifluoromethyl-1H-imidazo[4,5-c]-quinoline] | 237 to 239 °C | –
13 | Cc1cccc2c1nc(C(F)(F)F)c1nc(-c3ccco3)n(CCC3CCNCC3)c12 (as salt: trifluoroacetate) (hydrate or solvate) | 232 to 234 °C (dec.) | –
14 | Cc1ccc2c(c1)nc(C(F)(F)F)c1nc(-c3cccs3)n(CCC3CCNCC3)c12 (as salt: trifluoroacetate) (hydrate or solvate) [Example 91, 7-Methyl-1-[2-(4-piperidyl)ethyl]-2-(2-thienyl)-4-trifluoromethyl-1H-imidazo-[4,5-c]quinoline] | 236 to 238 °C (dec.) | –
15 | Fc1ccc2c(c1)nc(C(F)(F)F)c1nc(-c3ccco3)n(CCC3CCNCC3)c12 (as salt: trifluoroacetate) (hydrate or solvate) | 239 to 241 °C (dec.) | –
16 | Cc1cccc2c1nc(C(F)(F)F)c1nc(-c3ccc[nH]3)n(CCC3CCNCC3)c12 (as salt: trifluoroacetate) (hydrate or solvate) [Example 94, 6-Methyl-1-[2-(4-piperidyl)ethyl]-2-(2-pyrrolyl)-4-trifluoromethyl-1H-imidazo-[4,5-c]quinoline] | 233 to 234 °C (dec.) | –
